From patent US20100093773A1, “METHODS OF TREATING CANCER” (Myriad Pharmaceuticals, Inc., priority 2007, published 2010)
Where a name gives a salt, the structure may show the parent alone.

What was measured:
[1] = system: human ovarian OVCAR-3 carcinoma cells; assay: Vascular disruption effects in human tumor xenograft model (tumor histology, hematoxylin and eosin Y); format: in vivo, Crl:Nu/Nu-nuBR mice; details: OVCAR-3 xenograft, 24 hours after dosing; for blood vessels in the necrotic areas / tumor necrosis pattern (central area of the tumors): 10 mg/kg test compound, 100 mg/kg CA4P
Procedure: (4-Methoxy-phenyl)-methyl-(2-methyl-quinazolin-4-yl)-amine hydrochloride was tested in a human tumor xenograft model to determine its vascular disruption effects. Crl:Nu/Nu-nuBR mice were grown and injected with 1×10^7 human ovarian OVCAR-3 carcinoma cells on the right flank and allowed to grow to various tumor volumes. Mice were then dosed with either vehicle, 100 mg/kg combretastatin A-4 phosphate (CA4P) (obtained from Toronto Research Chemicals, Ontario, Canada) or 10 mg/kg (4-Methoxy-phenyl)-methyl-(2-methyl-quinazolin-4-yl)-amine hydrochloride.
Animals were housed by groups in Positive Individual Ventilation (PIV) cages in flat-bottom cages (Thoren Caging Systems, Hazelton, Pa.) with no more than ten mice per cage. Cages contained autoclaved TEK-Fresh bedding (Harlan, Indianapolis, Ind.), which was changed every seven days. Environmental controls were set to maintain a temperature between 65° F. and 75° F. with a relative humidity of 30-70% in a 12:12 hour light:dark cycle. Animals were feed gamma-irradiated 2019 rodent chow ad libitum (Harlan, Indianapolis, Ind.). Tap water was sterilized using manufacture recommended conditions and supplied via an automated watering system ad libitum (Edstrom Industries, Waterford, Wis.). Twenty four hours after dosing, mice were sacrificed and tumors and hearts removed, fixed, sectioned and stained with hematoxylin and eosin Y (each obtained from Richard Allen Scientific, Kalamazoo, Mich.).

[2] = Phase I clinical trial, weekly intravenous administration, subjects with refractory solid tumors (safety, tolerability); format: in vivo, human; details: i.v. weekly x3 per 4 week cycle, 0.3-3.3 mg/m^2
Procedure: An open-label, dose-escalating, multiple-dose study to define the safety, tolerability and pharmacokinetics of weekly intravenous administration of (4-Methoxy-phenyl)-methyl-(2-methyl-quinazolin-4-yl)-amine hydrochloride was performed. A dosing schedule (each 4 week cycle) was performed for (4-Methoxy-phenyl)-methyl-(2-methyl-quinazolin-4-yl)-amine hydrochloride weekly for 3 weeks with no infusion on the fourth week of each cycle. Subjects with refractory solid tumors were enrolled in cohorts of 3. During Cycle 1, subjects were hospitalized during each infusion of (4-Methoxy-phenyl)-methyl-(2-methyl-quinazolin-4-yl)-amine hydrochloride and remained for observation and safety evaluation for approximately 24 hours following the end of the infusion. All subject had continuous telemetry for 2 hours prior to infusion, for 1-2 hour infusion and for 3 hours after the end of the infusion. Any clinically significant electrocardiographic (ECG) wave form abnormality was recorded and prolongation of the monitoring period extended at the discretion of the principal investigator.
Electrocardiograms were obtained prior to starting the infusion and within 30 minutes of the end of infusion for each infusino of the first cycle. Electrocardiograms on Day 1 were obtained in triplicate 5 minutes apart.
Neurocognitive assessments were made by administration of the Mini-Mental State Examination (MMSE), the Hopkins Verbal Learning and timed Grooved Pegboard tests before administration of the intravenous infusion and approximately 24 hours of the infusion at each weekly administration of the first cycle.
On days 1, 8, and 15 of each cycle, vital signs were obtained prior to the first dose, at 15, 30, and 60 minutes after the initiation of the infusion, and at 0.5, 1, 1.5, 2, and 4 hours after the end of the intravenous infusion. Vital signs at all time points beyond the start of the intravenous infusion included heart rate, blood pressure and respirations. Temperature was measured at the end of the infusion and 4 hours later.
Individual subjects were allowed to continue on repeated weekly ×3 administrations every 28 days with no dose increase provided there was no unacceptable toxicity or disease progression.
Tumor response was evaluated by response evaluation criteria in solid tumors (RECIST) criteria. To prevent sever hypersensitivity reactions due to Cremophor® EL, subjects were premedicated with oral dexamethasone (20 mg) administered approximately 12 and 6 hours before the intervenous infusion with (4-Methoxy-phenyl)-methyl-(2-methyl-quinazolin-4-yl)-amine hydrochloride, diphenhydramine (50 mg) or its equivalent administered intravenously 30-60 minutes before (4-Methoxy-phenyl)-methyl-(2-methyl-quinazolin-4-yl)-amine hydrochloride, and cimetidine (300 mg) or ranitidine (50 mg) administered intravenously 30-60 minutes before (4-Methoxy-phenyl)-methyl-(2-methyl-quinazolin-4-yl)-amine hydrochloride.

For `COc1ccc(/C=C\c2cc(OC)c(OC)c(OC)c2)cc1OP(=O)(O)O` [CA4P, combretastatin A-4 phosphate, reference compound], the “blood vessels in the necrotic areas” value [1] was “consistently congested with perivascular hemorrhage” and the “tumor necrosis pattern (central area of the tumors)” value [1] was “extensive necrosis with a rim of viable tumor tissue around the periphery”.
For `COc1ccc(N(C)c2nc(C)nc3ccccc23)cc1` [(4-Methoxy-phenyl)-methyl-(2-methyl-quinazolin-4-yl)-amine hydrochloride], the bradycardia [2] was “occasional episodes of bradycardia”, the dose limiting toxicity [2] was “vascular in nature, manifested by an acute coronary syndrome” and the intratumor bleeding [2] was “incidences of intratumor bleeding”. The “overall safety and tolerability” value [2] was “safe and tolerable”, the peripheral cytotoxicity [2] was “no evidence of cytotoxity peripherally” and the systolic blood pressure [2] was “dose-related increase”. For the same compound, the “effects on cardiac conduction (PR, QRS or QTC)” value ([2]; ECG) was “no significant effects”, the “blood vessels in the necrotic areas” value [1] was “consistently congested with perivascular hemorrhage” and the “tumor necrosis pattern (central area of the tumors)” value [1] was “extensive necrosis with a rim of viable tumor tissue around the periphery”. For the same compound, the “degree of necrosis compared with CA4P treated animals” value ([1]; 10 mg/kg vs 100 mg/kg CA4P) was “greater”.
